Assay results as given in publication doi:10.1101/2021.04.08.439011v1 (biorxiv, 2021).
Like-named read-outs stand apart in the source and are kept apart here.

How the values were obtained:
[1] = target: PLK3 (Homo sapiens, UniProt Q9H4B4); conditions: 1 µM; binder
[2] = target: CAMK1 (Homo sapiens, UniProt Q14012); conditions: 1 µM; binder
[3] = target: EGFR(G719C) (Homo sapiens, UniProt P00533, G719C); conditions: 1 µM; binder
[4] = target: CDKL5 (Homo sapiens, UniProt O76039); conditions: 1 µM; binder
[5] = target: TEC (Homo sapiens, UniProt P42680); conditions: 1 µM; binder
[6] = target: ASK1 (Homo sapiens, UniProt Q99683); conditions: 1 µM; binder
[7] = target: FER (Homo sapiens, UniProt P16591); conditions: 1 µM; binder
[8] = target: NDR2 (Homo sapiens, UniProt Q9Y2H1); conditions: 1 µM; binder
[9] = target: CDK3 (Homo sapiens, UniProt Q00526); conditions: 1 µM; binder
Sequence of CDK3 (Q00526 whole entry): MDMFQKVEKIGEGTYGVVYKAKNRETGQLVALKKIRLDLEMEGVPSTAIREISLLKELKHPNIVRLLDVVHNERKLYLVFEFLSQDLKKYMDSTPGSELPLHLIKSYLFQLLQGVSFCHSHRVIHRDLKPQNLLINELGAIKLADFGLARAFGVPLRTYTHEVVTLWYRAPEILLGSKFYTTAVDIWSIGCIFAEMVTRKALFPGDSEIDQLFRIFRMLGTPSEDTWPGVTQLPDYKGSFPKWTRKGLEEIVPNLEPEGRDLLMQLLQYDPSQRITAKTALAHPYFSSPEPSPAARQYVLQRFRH

[10] = target: PAK2 (Homo sapiens, UniProt Q13177); conditions: 1 µM; binder
Sequence of PAK2 (Q13177 whole entry): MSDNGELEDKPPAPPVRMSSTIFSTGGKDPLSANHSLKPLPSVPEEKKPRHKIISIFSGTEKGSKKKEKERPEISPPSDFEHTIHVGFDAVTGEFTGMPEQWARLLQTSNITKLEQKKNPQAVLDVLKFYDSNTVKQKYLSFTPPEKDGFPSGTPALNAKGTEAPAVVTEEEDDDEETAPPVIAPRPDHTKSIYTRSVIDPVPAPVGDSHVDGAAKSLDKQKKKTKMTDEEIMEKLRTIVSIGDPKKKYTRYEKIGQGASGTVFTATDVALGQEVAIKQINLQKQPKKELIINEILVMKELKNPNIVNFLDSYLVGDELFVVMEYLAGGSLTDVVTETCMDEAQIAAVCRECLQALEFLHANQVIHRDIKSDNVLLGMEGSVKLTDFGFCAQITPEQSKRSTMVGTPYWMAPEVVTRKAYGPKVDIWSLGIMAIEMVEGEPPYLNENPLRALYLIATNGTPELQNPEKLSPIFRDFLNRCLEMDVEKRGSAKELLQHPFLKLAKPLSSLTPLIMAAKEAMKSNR

[11] = target: TRKB (Homo sapiens, UniProt Q16620); conditions: 1 µM; binder
Sequence of TRKB (Q16620 whole entry): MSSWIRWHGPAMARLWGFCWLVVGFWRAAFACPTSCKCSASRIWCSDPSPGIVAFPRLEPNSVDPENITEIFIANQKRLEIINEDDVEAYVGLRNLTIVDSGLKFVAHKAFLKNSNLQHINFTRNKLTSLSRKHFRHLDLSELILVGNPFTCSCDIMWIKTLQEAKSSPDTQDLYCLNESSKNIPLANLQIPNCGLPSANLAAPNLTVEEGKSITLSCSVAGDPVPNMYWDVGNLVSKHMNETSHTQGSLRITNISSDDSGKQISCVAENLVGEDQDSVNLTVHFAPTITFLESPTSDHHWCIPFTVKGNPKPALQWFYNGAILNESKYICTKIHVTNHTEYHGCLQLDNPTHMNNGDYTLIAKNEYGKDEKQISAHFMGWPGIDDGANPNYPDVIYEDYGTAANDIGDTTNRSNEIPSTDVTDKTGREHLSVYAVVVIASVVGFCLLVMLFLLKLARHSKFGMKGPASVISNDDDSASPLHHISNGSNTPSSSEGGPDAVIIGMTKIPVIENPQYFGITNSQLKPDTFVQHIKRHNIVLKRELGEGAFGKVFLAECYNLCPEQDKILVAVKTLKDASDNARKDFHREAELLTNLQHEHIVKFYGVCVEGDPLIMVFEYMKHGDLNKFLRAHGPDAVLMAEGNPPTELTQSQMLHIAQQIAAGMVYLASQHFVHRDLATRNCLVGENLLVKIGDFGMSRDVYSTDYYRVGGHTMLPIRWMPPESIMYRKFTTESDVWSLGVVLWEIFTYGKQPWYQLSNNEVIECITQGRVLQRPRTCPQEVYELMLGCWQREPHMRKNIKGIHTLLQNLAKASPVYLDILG

[12] = target: TYK2 (Homo sapiens, UniProt P29597); conditions: binder
Sequence of TYK2 (P29597 whole entry): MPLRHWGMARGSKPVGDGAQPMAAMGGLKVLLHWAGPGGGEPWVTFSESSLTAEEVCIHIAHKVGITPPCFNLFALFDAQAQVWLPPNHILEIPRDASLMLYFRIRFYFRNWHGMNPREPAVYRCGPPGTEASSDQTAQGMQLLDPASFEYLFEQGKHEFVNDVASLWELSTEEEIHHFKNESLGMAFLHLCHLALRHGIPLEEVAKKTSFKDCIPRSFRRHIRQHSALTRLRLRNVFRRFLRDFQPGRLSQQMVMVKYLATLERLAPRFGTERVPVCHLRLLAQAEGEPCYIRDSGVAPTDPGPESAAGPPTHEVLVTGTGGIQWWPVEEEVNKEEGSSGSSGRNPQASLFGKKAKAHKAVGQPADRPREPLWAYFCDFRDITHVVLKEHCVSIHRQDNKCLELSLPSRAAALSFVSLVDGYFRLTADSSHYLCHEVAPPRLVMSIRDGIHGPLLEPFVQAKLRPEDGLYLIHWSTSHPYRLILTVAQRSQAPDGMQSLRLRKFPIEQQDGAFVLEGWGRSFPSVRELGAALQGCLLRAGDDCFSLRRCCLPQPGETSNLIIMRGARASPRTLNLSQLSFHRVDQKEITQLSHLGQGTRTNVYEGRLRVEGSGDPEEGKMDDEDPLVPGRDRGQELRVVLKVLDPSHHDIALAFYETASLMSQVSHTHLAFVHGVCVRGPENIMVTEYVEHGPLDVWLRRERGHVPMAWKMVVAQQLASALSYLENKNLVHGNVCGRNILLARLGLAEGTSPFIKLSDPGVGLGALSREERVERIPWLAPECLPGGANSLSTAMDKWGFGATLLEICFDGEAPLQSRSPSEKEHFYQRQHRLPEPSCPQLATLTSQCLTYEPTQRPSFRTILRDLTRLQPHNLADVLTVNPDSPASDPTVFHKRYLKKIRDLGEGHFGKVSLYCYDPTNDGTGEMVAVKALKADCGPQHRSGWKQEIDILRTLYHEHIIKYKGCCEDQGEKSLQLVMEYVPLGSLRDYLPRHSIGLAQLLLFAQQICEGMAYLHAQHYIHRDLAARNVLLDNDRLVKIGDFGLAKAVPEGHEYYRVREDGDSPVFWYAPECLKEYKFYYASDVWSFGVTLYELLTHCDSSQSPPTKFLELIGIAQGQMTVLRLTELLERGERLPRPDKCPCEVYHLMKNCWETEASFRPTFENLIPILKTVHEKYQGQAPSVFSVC

[13] = target: LIMK2 (Homo sapiens, UniProt P53671); conditions: 1 µM; binder
[14] = target: VRK2 (Homo sapiens, UniProt Q86Y07); conditions: 1 µM; binder
[15] = target: WNK3 (Homo sapiens, UniProt Q9BYP7); conditions: 1 µM; binder
[16] = target: MKK7 (Homo sapiens, UniProt O14733); conditions: 1 µM; binder
[17] = target: MET(M1250T) (Homo sapiens, UniProt P08581, M1250T); conditions: 1 µM; binder
[18] = target: MEK5 (Homo sapiens, UniProt Q13163); conditions: 1 µM; binder
[19] = target: EGFR(G719S) (Homo sapiens, UniProt P00533, G719S); conditions: 1 µM; binder
[20] = target: DDR1 (Homo sapiens, UniProt Q08345); conditions: 1 µM; binder
[21] = target: FLT3(ITD) (Homo sapiens, UniProt P36888); conditions: 1 µM; binder
Sequence of FLT3(ITD) (P36888 564-993, change not shown): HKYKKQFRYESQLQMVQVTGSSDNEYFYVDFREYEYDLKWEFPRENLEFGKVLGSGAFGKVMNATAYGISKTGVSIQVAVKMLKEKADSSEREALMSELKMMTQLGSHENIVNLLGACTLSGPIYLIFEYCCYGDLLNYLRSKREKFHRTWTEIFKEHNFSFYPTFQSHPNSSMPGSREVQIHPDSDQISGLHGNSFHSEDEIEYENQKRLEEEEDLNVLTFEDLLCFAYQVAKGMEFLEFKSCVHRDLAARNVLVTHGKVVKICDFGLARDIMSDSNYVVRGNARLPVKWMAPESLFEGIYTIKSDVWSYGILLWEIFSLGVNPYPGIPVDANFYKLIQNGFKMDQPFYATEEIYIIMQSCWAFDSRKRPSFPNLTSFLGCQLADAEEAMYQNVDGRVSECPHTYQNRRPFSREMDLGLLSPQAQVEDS

[22] = target: KIT (Homo sapiens, UniProt P10721); conditions: 1 µM; binder
[23] = target: EGFR (Homo sapiens, UniProt P00533); conditions: 1 µM; binder
[24] = target: PIK3CA(H1047L) (Homo sapiens, UniProt P42336, H1047L); conditions: 1 µM; binder
Sequence of PIK3CA(H1047L) (P42336 whole entry H1047L): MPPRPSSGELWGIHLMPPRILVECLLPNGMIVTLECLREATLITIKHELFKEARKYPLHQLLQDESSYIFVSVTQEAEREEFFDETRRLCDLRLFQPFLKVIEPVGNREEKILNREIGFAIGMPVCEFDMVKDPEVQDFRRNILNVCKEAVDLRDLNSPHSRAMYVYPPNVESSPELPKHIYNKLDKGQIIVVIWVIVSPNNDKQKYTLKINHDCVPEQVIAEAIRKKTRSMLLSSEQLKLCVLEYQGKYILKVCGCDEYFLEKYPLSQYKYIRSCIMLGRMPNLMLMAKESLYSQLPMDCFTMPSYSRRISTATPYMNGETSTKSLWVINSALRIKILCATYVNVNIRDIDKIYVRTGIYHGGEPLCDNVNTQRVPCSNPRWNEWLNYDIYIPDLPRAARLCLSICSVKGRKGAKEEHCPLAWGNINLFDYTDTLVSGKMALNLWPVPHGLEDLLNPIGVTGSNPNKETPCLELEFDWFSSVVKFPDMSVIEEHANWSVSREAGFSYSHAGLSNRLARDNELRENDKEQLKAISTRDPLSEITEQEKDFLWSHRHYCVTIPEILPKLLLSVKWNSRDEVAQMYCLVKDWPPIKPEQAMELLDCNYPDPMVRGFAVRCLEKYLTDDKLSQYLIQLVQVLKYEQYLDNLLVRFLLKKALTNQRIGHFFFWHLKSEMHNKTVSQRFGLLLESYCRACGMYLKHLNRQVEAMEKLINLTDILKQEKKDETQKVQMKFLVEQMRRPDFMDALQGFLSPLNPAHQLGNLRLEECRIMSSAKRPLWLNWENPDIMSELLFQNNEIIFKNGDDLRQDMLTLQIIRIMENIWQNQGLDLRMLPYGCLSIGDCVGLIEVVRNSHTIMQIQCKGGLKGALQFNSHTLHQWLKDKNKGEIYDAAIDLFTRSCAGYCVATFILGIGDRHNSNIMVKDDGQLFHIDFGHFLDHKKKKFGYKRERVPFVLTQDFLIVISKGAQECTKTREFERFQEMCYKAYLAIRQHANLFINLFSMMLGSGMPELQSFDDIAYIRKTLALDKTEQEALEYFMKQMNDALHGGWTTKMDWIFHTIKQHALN

[25] = target: CSNK1D (Homo sapiens, UniProt P48730); conditions: 1 µM; binder
[26] = target: PAK4 (Homo sapiens, UniProt O96013); conditions: 1 µM; binder
[27] = target: ACVRL1 (Homo sapiens, UniProt P37023); conditions: 1 µM; binder
[28] = target: p38-alpha (Homo sapiens, UniProt Q16539); conditions: 1 µM; binder
[29] = target: JAK2 (Homo sapiens, UniProt O60674); conditions: JH1 domain catalytic; binder
[30] = target: EIF2AK1 (Homo sapiens, UniProt Q9BQI3); conditions: 1 µM; binder

Sequence of CAMK1 (Q14012 whole entry): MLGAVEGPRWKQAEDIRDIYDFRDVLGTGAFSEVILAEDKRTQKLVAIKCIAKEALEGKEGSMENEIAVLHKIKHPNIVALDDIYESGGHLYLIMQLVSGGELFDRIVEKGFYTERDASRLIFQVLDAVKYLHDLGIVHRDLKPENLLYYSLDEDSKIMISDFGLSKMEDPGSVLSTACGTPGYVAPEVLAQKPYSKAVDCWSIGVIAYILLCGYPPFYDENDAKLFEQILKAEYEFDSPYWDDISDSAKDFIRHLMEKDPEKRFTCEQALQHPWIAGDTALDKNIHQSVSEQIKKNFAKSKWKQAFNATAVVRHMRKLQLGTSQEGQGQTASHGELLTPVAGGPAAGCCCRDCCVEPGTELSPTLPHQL

## CNc1ncc2cc(-c3ccc(-c4cccc(C)n4)cc3Cl)c(=O)n(C[C@H]3OC[C@H](N)CO3)c2n1 [compound 6, G-5555]
[1]
  Percent Control: 93%
[2]
  Percent Control: 59%
[3]
  Percent Control: 100%
[4]
  Percent Control: 97%
[5]
  Percent Control: 100%
[6]
  Percent Control: 71%
[7]
  Percent Control: 100%
[8]
  Percent Control: 100%
[9]
  Percent Control: 100%
[10]
  Percent Control: 0%
[11]
  Percent Control: 100%
[12]; JH1 domain catalytic
  Percent Control: 74%
[12]; JH2 domain pseudokinase, 1 µM
  Percent Control: 98%
[13]
  Percent Control: 100%
[14]
  Percent Control: 100%
[15]
  Percent Control: 100%
[16]
  Percent Control: 77%
[17]
  Percent Control: 45%
[18]
  Percent Control: 0.2%
[19]
  Percent Control: 100%
[20]
  Percent Control: 53%
[21]
  Percent Control: 100%
[22]
  Percent Control: 100%
[23]
  Percent Control: 88%
[24]
  Percent Control: 100%
[25]
  Percent Control: 100%
[26]
  Percent Control: 77%
[27]
  Percent Control: 100%
[28]
  Percent Control: 100%
[29]
  Percent Control: 83%
[30]
  Percent Control: 100%
